PubChem BioAssay AID2060883 (Molecular Pharmacology Branch, DTP, NCI, 2025)

System: 843782-103-R-J1-PDC complex spheroid viability
Assay: Anticancer human tumor 843782-103-R-J1-PDC patient-derived lung adenocarcinoma cell line growth inhibition [RAS]
Conditions: for IC50: curve of first compound; for viability, T/C: stronger effect = lower value
Method in brief: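 Multi-cell-type spheroids: tumor cells plus HUVEC endothelial cells and mesenchymal stem cells. RAS-pathway inhibitors were combined with targeted agents, each dosed in half-log steps down from clinical Cmax, or from 10 microM when Cmax was unknown.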
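Further: viability read after seven days of compound exposure.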

**Q.** With `CCc1c2c(nc3ccc(O)cc13)-c1cc3c(c(=O)n1C2)COC(=O)[C@]3(O)CC` + C#Cc1c(F)ccc2cc(O)cc(-c3ncc4c(N5CC6CCC(C5)N6)nc(OCC56CCCN5CC(F)C6)nc4c3F)c12 as the compound, how does the IC50 (second compound 0.0316 µM) read?
**A.** 1.91 nM

**Q.** And the IC50 (second compound 0.1 µM)?
**A.** 2 nM

**Q.** And the IC50 (second compound 0.316 µM)?
**A.** 1.95 nM

**Q.** And the IC50 (second compound 1 µM)?
**A.** 1.91 nM

**Q.** And the IC50 (second compound 3.16 µM)?
**A.** 1.62 nM

**Q.** What about the IC50 (second compound 10 µM) of the same compound?
**A.** < 0.949 nM

**Q.** What about the viability, T/C (second compound 0.0316 µM, first compound 0.000949 µM) of the same compound?
**A.** 103%

**Q.** And the viability, T/C (second compound 0.0316 µM, first compound 0.003 µM)?
**A.** 15.3%

**Q.** What about the viability, T/C (second compound 0.0316 µM, first compound 0.00949 µM) of the same compound?
**A.** 8.79%

**Q.** What about the viability, T/C (second compound 0.0316 µM, first compound 0.03 µM) of the same compound?
**A.** 2.87%

**Q.** And the viability, T/C (second compound 0.0316 µM, first compound 0.0949 µM)?
**A.** 1.58%

**Q.** And the viability, T/C (second compound 0.0316 µM, first compound 0.3 µM)?
**A.** 0.53%

**Q.** And the viability, T/C (second compound 0.1 µM, first compound 0.000949 µM)?
**A.** 104%

**Q.** And the viability, T/C (second compound 0.1 µM, first compound 0.003 µM)?
**A.** 19.6%

**Q.** What about the viability, T/C (second compound 0.1 µM, first compound 0.00949 µM) of the same compound?
**A.** 8.39%

**Q.** What about the viability, T/C (second compound 0.1 µM, first compound 0.03 µM) of the same compound?
**A.** 4.21%

**Q.** What about the viability, T/C (second compound 0.1 µM, first compound 0.0949 µM) of the same compound?
**A.** 1.08%

**Q.** What about the viability, T/C (second compound 0.1 µM, first compound 0.3 µM) of the same compound?
**A.** 0.68%

**Q.** And the viability, T/C (second compound 0.316 µM, first compound 0.000949 µM)?
**A.** 96.8%

**Q.** And the viability, T/C (second compound 0.316 µM, first compound 0.003 µM)?
**A.** 20.8%

**Q.** What about the viability, T/C (second compound 0.316 µM, first compound 0.00949 µM) of the same compound?
**A.** 8.99%

**Q.** And the viability, T/C (second compound 0.316 µM, first compound 0.03 µM)?
**A.** 3.62%

**Q.** What about the viability, T/C (second compound 0.316 µM, first compound 0.0949 µM) of the same compound?
**A.** 1.15%

**Q.** And the viability, T/C (second compound 0.316 µM, first compound 0.3 µM)?
**A.** 0.74%

**Q.** And the viability, T/C (second compound 1 µM, first compound 0.000949 µM)?
**A.** 85.5%

**Q.** What about the viability, T/C (second compound 1 µM, first compound 0.003 µM) of the same compound?
**A.** 26.8%

**Q.** What about the viability, T/C (second compound 1 µM, first compound 0.00949 µM) of the same compound?
**A.** 7.99%

**Q.** What about the viability, T/C (second compound 1 µM, first compound 0.03 µM) of the same compound?
**A.** 3.68%

**Q.** And the viability, T/C (second compound 1 µM, first compound 0.0949 µM)?
**A.** 1.44%

**Q.** What about the viability, T/C (second compound 1 µM, first compound 0.3 µM) of the same compound?
**A.** 0.87%

**Q.** What about the viability, T/C (second compound 3.16 µM, first compound 0.000949 µM) of the same compound?
**A.** 73.4%

**Q.** What about the viability, T/C (second compound 3.16 µM, first compound 0.003 µM) of the same compound?
**A.** 21.8%

**Q.** And the viability, T/C (second compound 3.16 µM, first compound 0.00949 µM)?
**A.** 10.4%

**Q.** And the viability, T/C (second compound 3.16 µM, first compound 0.03 µM)?
**A.** 4.24%

**Q.** What about the viability, T/C (second compound 3.16 µM, first compound 0.0949 µM) of the same compound?
**A.** 1.56%

**Q.** What about the viability, T/C (second compound 3.16 µM, first compound 0.3 µM) of the same compound?
**A.** 0.77%

**Q.** What about the viability, T/C (second compound 10 µM, first compound 0.000949 µM) of the same compound?
**A.** 42.2%

**Q.** And the viability, T/C (second compound 10 µM, first compound 0.003 µM)?
**A.** 12.1%

**Q.** And the viability, T/C (second compound 10 µM, first compound 0.00949 µM)?
**A.** 9.81%

**Q.** And the viability, T/C (second compound 10 µM, first compound 0.03 µM)?
**A.** 3.11%

**Q.** And the viability, T/C (second compound 10 µM, first compound 0.0949 µM)?
**A.** 1.08%

**Q.** What about the viability, T/C (second compound 10 µM, first compound 0.3 µM) of the same compound?
**A.** 0.39%

**Q.** Which IC50 (second compound 0.000949 µM) does the source give for `CC(C)NCC(C(=O)N1CCN(c2ncnc3c2C(C)CC3O)CC1)c1ccc(Cl)cc1` (centres undefined) + CCn1c(-c2cccnc2C(C)OC)c2c3cc(ccc31)N1CCOC(CC(NC(=O)C(C(C)C)N(C)C(=O)C3(F)CCN(C(=O)C#CC(C)(C)N(C)C)CC3)C(=O)N3CCCC(N3)C(=O)OCC(C)(C)C2)C1 here?
**A.** 287 nM

**Q.** And the IC50 (second compound 0.003 µM)?
**A.** 325 nM

**Q.** What about the IC50 (second compound 0.00949 µM) of the same compound?
**A.** 402 nM

**Q.** What about the IC50 (second compound 0.03 µM) of the same compound?
**A.** 309 nM

**Q.** What about the IC50 (second compound 0.0949 µM) of the same compound?
**A.** 403 nM

**Q.** And the IC50 (second compound 0.3 µM)?
**A.** 174 nM

**Q.** And the viability, T/C (second compound 0.000949 µM, first compound 0.0316 µM)?
**A.** 74.5%

**Q.** What about the viability, T/C (second compound 0.000949 µM, first compound 0.1 µM) of the same compound?
**A.** 68.8%

**Q.** And the viability, T/C (second compound 0.000949 µM, first compound 0.316 µM)?
**A.** 48.5%

**Q.** What about the viability, T/C (second compound 0.000949 µM, first compound 1 µM) of the same compound?
**A.** 19.6%

**Q.** What about the viability, T/C (second compound 0.000949 µM, first compound 3.16 µM) of the same compound?
**A.** 10.8%

**Q.** And the viability, T/C (second compound 0.000949 µM, first compound 10 µM)?
**A.** 4.86%

**Q.** And the viability, T/C (second compound 0.003 µM, first compound 0.0316 µM)?
**A.** 74.1%

**Q.** And the viability, T/C (second compound 0.003 µM, first compound 0.1 µM)?
**A.** 71.3%

**Q.** What about the viability, T/C (second compound 0.003 µM, first compound 0.316 µM) of the same compound?
**A.** 47.5%

**Q.** What about the viability, T/C (second compound 0.003 µM, first compound 1 µM) of the same compound?
**A.** 30%

**Q.** And the viability, T/C (second compound 0.003 µM, first compound 3.16 µM)?
**A.** 12.4%

**Q.** And the viability, T/C (second compound 0.003 µM, first compound 10 µM)?
**A.** 7.3%

**Q.** And the viability, T/C (second compound 0.00949 µM, first compound 0.0316 µM)?
**A.** 68.2%

**Q.** And the viability, T/C (second compound 0.00949 µM, first compound 0.1 µM)?
**A.** 65.3%

**Q.** What about the viability, T/C (second compound 0.00949 µM, first compound 0.316 µM) of the same compound?
**A.** 55.9%

**Q.** What about the viability, T/C (second compound 0.00949 µM, first compound 1 µM) of the same compound?
**A.** 30%

**Q.** And the viability, T/C (second compound 0.00949 µM, first compound 3.16 µM)?
**A.** 13.9%

**Q.** What about the viability, T/C (second compound 0.00949 µM, first compound 10 µM) of the same compound?
**A.** 4.79%

**Q.** And the viability, T/C (second compound 0.03 µM, first compound 0.0316 µM)?
**A.** 72.9%

**Q.** What about the viability, T/C (second compound 0.03 µM, first compound 0.1 µM) of the same compound?
**A.** 66%

**Q.** And the viability, T/C (second compound 0.03 µM, first compound 0.316 µM)?
**A.** 50.5%

**Q.** And the viability, T/C (second compound 0.03 µM, first compound 1 µM)?
**A.** 24.8%

**Q.** And the viability, T/C (second compound 0.03 µM, first compound 3.16 µM)?
**A.** 13.8%

**Q.** And the viability, T/C (second compound 0.03 µM, first compound 10 µM)?
**A.** 6.84%

**Q.** And the viability, T/C (second compound 0.0949 µM, first compound 0.0316 µM)?
**A.** 70.8%

**Q.** And the viability, T/C (second compound 0.0949 µM, first compound 0.1 µM)?
**A.** 66.3%

**Q.** What about the viability, T/C (second compound 0.0949 µM, first compound 0.316 µM) of the same compound?
**A.** 56.9%

**Q.** What about the viability, T/C (second compound 0.0949 µM, first compound 1 µM) of the same compound?
**A.** 27.1%

**Q.** And the viability, T/C (second compound 0.0949 µM, first compound 3.16 µM)?
**A.** 11.5%

**Q.** And the viability, T/C (second compound 0.0949 µM, first compound 10 µM)?
**A.** 5.05%

**Q.** And the viability, T/C (second compound 0.3 µM, first compound 0.0316 µM)?
**A.** 63.4%

**Q.** What about the viability, T/C (second compound 0.3 µM, first compound 0.1 µM) of the same compound?
**A.** 60%

**Q.** And the viability, T/C (second compound 0.3 µM, first compound 0.316 µM)?
**A.** 39.8%

**Q.** And the viability, T/C (second compound 0.3 µM, first compound 1 µM)?
**A.** 23.2%

**Q.** What about the viability, T/C (second compound 0.3 µM, first compound 3.16 µM) of the same compound?
**A.** 11.3%

**Q.** And the viability, T/C (second compound 0.3 µM, first compound 10 µM)?
**A.** 5.97%
